Assay results from PubChem BioAssay (NCI).
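Five concentrations, 48 hours, 96-well plates. TGI marks complete inhibition of growth.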

Key:
Assay in all cases: NCI-60 cell line screen, 48 h
NCI-H460 lung = test system: NCI-H460 lung
UACC-257 melanoma = test system: UACC-257 melanoma
SK-MEL-5 melanoma = test system: SK-MEL-5 melanoma
HCC-2998 colon = test system: HCC-2998 colon
A549 NSCLC = test system: A549 NSCLC
HOP-62 NSCLC = test system: HOP-62 NSCLC
A498 renal = test system: A498 renal
HOP-92 NSCLC = test system: HOP-92 NSCLC
COLO 205 colon = test system: COLO 205 colon
MDA-N = test system: MDA-N
RXF 393 renal = test system: RXF 393 renal

SMILES	TGI (NCI-H460 lung)	TGI (UACC-257 melanoma)	TGI (SK-MEL-5 melanoma)	TGI (HCC-2998 colon)	TGI (A549 NSCLC)	TGI (HOP-62 NSCLC)	TGI (A498 renal)	TGI (HOP-92 NSCLC)	TGI (COLO 205 colon)	TGI (MDA-N)	TGI (RXF 393 renal)
C/C(=N\Nc1nc2ccccc2o1)c1ccncn1	> 42.6 µM	> 27.5 µM	> 81.6 µM	29 µM	> 32.7 µM	> 68.7 µM	10.7 µM	6.05 µM	> 51.3 µM	–	–
O=C(c1ccccc1)c1c(CNCc2ccccc2)n(C(=O)c2ccccc2)c2ccccc12	> 100 µM	> 100 µM	> 100 µM	> 100 µM	> 100 µM	> 100 µM	–	82.1 µM	> 100 µM	–	–
CCn1cnc2c(NC(C)=O)ncnc21	> 100 µM	> 100 µM	> 100 µM	> 100 µM	> 100 µM	> 100 µM	–	> 100 µM	> 100 µM	> 100 µM	> 100 µM
Cc1n[nH]c(=O)n1N1C(=O)c2ccccc2C1=O	> 100 µM	> 100 µM	> 100 µM	> 100 µM	> 100 µM	> 100 µM	> 100 µM	> 100 µM	> 100 µM	> 100 µM	–
CCc1n[nH]c(=O)n1NC(=O)/C=C\C(=O)O	> 100 µM	> 100 µM	> 100 µM	> 100 µM	> 100 µM	> 100 µM	> 100 µM	–	> 100 µM	> 100 µM	> 100 µM
O=C1OC(c2ccccc2)N/C1=C\c1ccc2c(c1)OCO2 (stereo unspecified)	> 100 µM	> 100 µM	> 100 µM	> 100 µM	> 100 µM	> 100 µM	–	> 100 µM	> 100 µM	> 100 µM	> 100 µM
COc1cc(OC)nc(Nc2c(C#N)c3nc4ccccc4n3c3ccccc23)n1	> 100 µM	> 100 µM	> 100 µM	> 100 µM	> 100 µM	35 µM	–	–	> 100 µM	> 100 µM	99.2 µM
O=c1[nH]c(=O)n(C2CC(O)C(CO)O2)cc1C#Cc1cc(F)cc(F)c1 (stereo unspecified)	> 100 µM	> 100 µM	> 100 µM	> 100 µM	> 100 µM	> 100 µM	–	–	> 100 µM	–	–
CN(C(=O)c1cccs1)C(=S)N1CCN(c2ccccc2)CC1	> 100 µM	> 100 µM	> 100 µM	> 100 µM	> 100 µM	–	–	> 100 µM	> 100 µM	> 100 µM	> 100 µM
Cc1nc2c(ncn2CCO)c(=O)[nH]1	> 100 µM	> 100 µM	> 100 µM	> 100 µM	> 100 µM	> 100 µM	> 100 µM	–	> 100 µM	> 100 µM	> 100 µM
CC1CCC23COC(=O)C2C(O)CCC3C1(C)CC(O)c1ccoc1 (stereo unspecified)	> 100 µM	> 100 µM	> 100 µM	> 100 µM	> 100 µM	> 100 µM	> 100 µM	> 100 µM	> 100 µM	–	> 100 µM
COc1ccc(-c2nnc(CCCCCCCCc3nnc(-c4ccc(OC)cc4)o3)o2)cc1	> 100 µM	> 100 µM	> 100 µM	> 100 µM	> 100 µM	74.2 µM	> 100 µM	> 100 µM	> 100 µM	> 100 µM	–
OCSc1nn(CO)c(=S)s1	54.5 µM	48.1 µM	> 100 µM	43.3 µM	> 100 µM	45.2 µM	–	41.7 µM	67.8 µM	–	34.3 µM
CCCCOC(=O)C1CN2C(=NC1(C(F)(F)F)C(F)(F)F)Sc1ccccc12 (stereo unspecified)	> 100 µM	> 100 µM	54.2 µM	–	> 100 µM	> 100 µM	> 100 µM	> 100 µM	> 100 µM	> 100 µM	63.4 µM
COC1(C)C=NCC(C)(C)NC(=O)C(C)(OC)C=NCC(C)(C)NC1=O (stereo unspecified)	–	> 10 µM	> 10 µM	> 10 µM	> 10 µM	> 10 µM	–	> 10 µM	> 10 µM	> 10 µM	> 10 µM
O=C(Nc1c(Cl)cc([N+](=O)[O-])cc1Cl)/C(=N\Nc1cccc(Cl)c1)c1c(O)c2ccccc2oc1=O	> 100 µM	> 100 µM	> 100 µM	> 100 µM	> 100 µM	> 100 µM	91.4 µM	–	> 100 µM	–	> 100 µM
Nc1ccc(N)c2c1C(=O)c1c(N)ccc(N)c1C2=O	> 100 µM	> 100 µM	> 100 µM	> 100 µM	> 100 µM	> 100 µM	> 100 µM	> 92.3 µM	> 100 µM	–	> 93.5 µM
N=c1oc2c(Cl)cc(Cl)cc2cc1C(=O)Nc1ccccn1	> 100 µM	> 100 µM	> 100 µM	> 100 µM	> 100 µM	> 100 µM	> 100 µM	–	> 100 µM	> 100 µM	47.7 µM
COc1cc2c(cc1O)C(C)Cc1cc3c(cc1N(C)CC2)OCO3 (stereo unspecified)	37.7 µM	> 47.2 µM	10 µM	19.5 µM	32.6 µM	36.8 µM	39.5 µM	18 µM	> 58.8 µM	–	9.48 µM
Cc1cc(-c2ccccc2)cc2[n+]1CC=C2	> 100 µM	> 100 µM	–	> 100 µM	> 100 µM	> 100 µM	–	94.8 µM	> 100 µM	–	97.6 µM
CC1(C)C2CCC1(CC(=O)O)C(Cl)C2 (stereo unspecified)	> 100 µM	> 100 µM	> 100 µM	> 100 µM	> 100 µM	> 100 µM	> 100 µM	–	> 100 µM	–	> 100 µM
